The values below are quoted from earlier work in paper PMC10254170, “Diastereoselective Synthesis of the Borylated D-Galactose Monosaccharide 3-Boronic-3-Deoxy-D-Galactose and Biological Evaluation in Glycosidase Inhibition and in Cancer for Boron Neutron Capture Therapy (BNCT)” (Molecules, 2023).

Structures are written as SMILES.

The test system of the data set is human. The note with it: 5 min; cited from earlier work.

Take `c1ccccc1` [benzene]: the LCLO is given as 20,000 ppm.
